Assay results published in US7781580B2, “Stilbene derivatives as new cancer therapeutic agents” (Virginia Commonwealth University, priority 2007, dated 2010).
Where a name gives a salt, the structure may show the parent alone.

Experiments:
[1] = test system: SNU423 hepatocellular carcinoma cells; assay: Alamar Blue cell growth inhibition, SNU423; format: cell-based
Procedure: Cell growth was measured by Alamar Blue™ staining and the OD absorbance at 570 and 600 nm was determined by a microplate reader. The percentage of cell growth inhibition was calculated and compared with the control cells that were treated with 0.1% DMSO, the vehicle for the stilbene compounds.
(§1) Various cancer cell lines were grown in 96-well plates for drug sensitivity assays. Once cells achieved 50% confluence, the incubation media was changed to the same cell growth media with different concentrations of the tested compounds or vehicle alone. Cells were then incubated for 48 hours before the cell growth inhibition study. To determine the degree of cell growth inhibition, 1/10 volume of Alamar Blue™ solution was added to each well and optical density (OD) at 570 and 600 nm was determined. The percentage of growth inhibition was calculated according to the manufacturer's formula as follows: The percentage of growth is [(117216×A570)−(80586×A600)]/[(117216×A^o570)−(80586×A^o600)]×100. In this formula, A570 is the absorbance of the treated samples at 570 nm; A600 is the absorbance of the treated samples at 600 nm; A^o570 is the absorbance of the […] samples at 570 nm; and A^o600 is the absorbance of the untreated samples at 600 nm. The two constants, 117216 and 80586, are the extinction coefficients of Alamar Blue™ at 570 and 600 nm respectively. Each concentration was repeated in triplicate to minimize the error.
(§2) We first tested the cytotoxic effect of various stilbene derivatives for their in vitro efficacy of suppressing tumor cell proliferation. Cells were first plated in 96-well plates at 50% confluence and treated with 0, 0.01, 0.03, 0.1, 0.3, 1.0, 3.0, 10 μM concentrations of stilbene derivatives for 48 hours in triplicate. Alamar Blue™ reagent was added into each well at 1/10 volume and incubated for 2 hours before quantification of the absorbance at 570 and 600 nm.

[2] = test system: SKOV3 ovarian cancer cells; assay: Alamar Blue cell growth inhibition, SKOV3; format: cell-based
Procedure: Cells were incubated with various concentrations of the compounds for 48 hours. Cell growth was measured by Alamar Blue™ staining and the percentage of cell growth inhibition was calculated and compared with the control cells that were treated with 0.1% DMSO, the vehicle for the stilbene compounds.
as §1

[3] = test system: UCI101 ovarian cancer cells; assay: Alamar Blue cell growth inhibition, UCI101; format: cell-based; conditions: for relative potency / activity: UCI101, 48 hours
Procedure: Cell growth was measured by AlamarBlue™ staining and the percentage of cell growth inhibition was calculated and compared with the control cells that were treated with 0.1% DMSO, the vehicles for the stilbene compounds.
Cells were treated with the tested drug for 2 days before analysis of cell growth by Alamar Blue™ staining. Cells treated with 0.1% DMSO were used as control and set as 100%.
(§3) (a) In vitro sensitivity of UCI101 cells toward three potential stilbene prodrugs, 5a-c, was tested in 96-well plates using Alamar Blue™ assays to determine cell growth inhibition. […] (b) 5b induces cell cycle change and apoptosis in UCI101 cells. Cells were incubated with 5b at 1, 3, 10 μM for 16 hours followed by PI staining and flow cytometry analysis. A subG0/1 population, representing apoptotic cells, appeared along with a decrease of the G1/G2 ratio after cells were treated with 3 μM 5b. Higher concentration (10 μM) of 5b completely killed cells, as was the case with stilbene 4a at […]. (c) Cells treated with stilbene 4a and 5b were stained with phospho-histone 3B, a mitotic marker. The positive signals of phospho-histone 3B were shown in green and nuclei were stained with DAPI in blue. […] (d) In vivo efficacy of 5b compared with stilbene 4a. Nude mice were injected with UCI101 ovarian cancer cells and treated with 7 doses of 5b,c or stilbene 4a every 2-3 days. Tumor volume was calculated and plotted against days.
as §1, §2

[4] = test system: UCI101 ovarian cancer cells (xenograft); assay: UCI101 xenograft in nude mice; format: in vivo
Procedure: as §3
We next tested whether 5b could be converted into stilbene 4a in circulation. […] Blood was collected at 20, 60 and 240 min after injection for spot check of stilbene 4a level in serum. […] The in vivo efficacy of 5b and 5c was compared to stilbene 4a in a pilot study using 5 mice in each group.

Tubulin (>99% pure) = assay: tubulin polymerization assay (OD 340 nm); format: biochemical; conditions: OD340 nm; nocodazole and paclitaxel 10 μM
Procedure: FIG. 3a-d. Stilbenes inhibit tubulin polymerization. (a) Effect of stilbene 4a. Pure tubulin was incubated with various concentrations of stilbene 4a, 10 μM nocodazole, and 10 μM paclitaxel in the polymerization buffer. The OD at 340 nm was monitored every minute by SpectraMAX 250 and plotted against time. (b) Effect of stilbene 4c. (c) Comparison of same concentrations of stilbenes 4a, 4a trans, 4c and 4c trans with control. […] Tubulin was incubated with [^3H]-colchicine and various concentrations of different stilbenes for 20 min. Tubulin was then separated from the unbound [^3H]-colchicine by Microcon-30 and washed three times with PBS. The radioactivity of the tubulin was counted. […] All experiments were done in triplicates.
The tubulin polymerization assay kit was purchased from Cytoskeleton (Denver, Colo.). Tubulin (>99% pure) was mixed with general tubulin buffer (GTB, 80 mM PIPES pH 6.9, 2 mM MgCl2, 0.5 mM EGTA, and 1 mM GTP) in a 96-well plate at 37° C. Absorbance at 340 nm was measured every 1 min for 60 min by SpectraMAX 250 (Molecular Devices, Sunnyville, Calif.). Analysis of the results was performed by SoftMAX Pro version 1.2.0 from the same company.

[5] = test system: HL60 leukemic cells (xenograft); assay: HL60 xenograft model in SCID mice; format: in vivo; conditions: 5 mg/kg/day for 4 days
Procedure: FIG. 20. Effect of stilbene 4a in vivo. (a) Induction of cell death in vivo by stilbene 4a. Tumor was harvested at 24 hours after treatment for TUNEL assay. (b) Histological sections of tumor. Tumor harvested at 24 hours after injection of stilbene 4a was analyzed by H & E staining. The area with lighter color is the necrotic region. (c) Tumor growth suppression. SCID mice were injected subcutaneously with 5×10^6 HL60 cells at each flank. Once the diameter of tumor reached 5 mm in diameter in majority of mice, mice were treated with 5 daily injection of stilbene 4a. Tumor volume was calculated by the long and short axis of tumor and plotted against days. Each group contains 5 mice.
HL60 leukemic cells were injected subcutaneously into ICR-scid mice (Taconic Inc.) on flank. After tumor becomes visible after 12 days, Mice will be treated with stilbene 4a by intravenous injection after dissolved in 10% DMSO in normal saline. For acute effect study, mice were sacrificed 24 hours after injection and tumor and bone marrow were harvested for histological staining and flow cytometry analysis. For long term effect study, stilbenes were injected intravenously from tail veins at 2 or 10 mg/kg for 5 consecutive days. Negative control mice were treated with 10% DMSO in normal saline and positive control mice were treated with Ara-C at 5 mg/kg. Tumor volume was measured twice a week for 4 weeks by the long and short axes of tumor. Volume was calculated by the formula ab^2/2, in which “a” represents the long axis and “b” the short axis of tumor. Mice were euthanized if the calculated tumor reached 10% of the body weight.

COc1cc(/C=C\c2ccc(OC)c(N)c2)cc(OCCO)c1 (as salt: hydrochloride) [10a, (Z)-2-{3-[2-(3-Amino-4-methoxy-phenyl)-vinyl]-5-methoxy-phenoxy}-ethanol, hydrochloride]
melting point: 157 to 159 °C

COc1cc(/C=C\c2ccc(OC)c(C(=O)O)c2)cc(OC)c1 [4d, (Z)-5-[2-(3,5-Dimethoxy-phenyl)-vinyl]-2-methoxybenzoic acid.]
effective concentration, blocking cell proliferation ([1]; SNU423, 48 hours): > 10 µM | activity ([2]; SKOV3): not active

COc1cc(/C=C\c2ccc(OC)c(NC(=O)OCCOCCOCCO)c2)cc(OC)c1 [5c, (Z)-{5-[2-(3,5-Dimethoxy-phenyl)-vinyl]-2-methoxy-phenyl}-carbamic acid-2-[2-(2-hydroxy-ethoxy)-ethoxy]-ethyl ester]
relative potency / activity [3]: showed no activity | tumor growth versus control mice ([4]; 7 doses every 2-3 days): tumor growth rate the same as that of control mice | mouse weight ([4]; mouse, in vivo): did not show any significant change

COc1cc(/C=C\c2ccc(OC)c(CN3C(=O)c4ccccc4C3=O)c2)cc(OC)c1 [3e, (Z)-2-{5-[2-(3,5-Dimethoxy-phenyl)-vinyl]-2-methoxy-benzyl}-isoindole-1,3-dione]
effective concentration, cell growth suppression ([3]; UCI101): > 3 µM

COC(=O)Nc1nc2ccc(C(=O)c3cccs3)cc2[nH]1 [nocodazole, reference compound]
effect on tubulin polymerization (Tubulin (>99% pure)): suppressed

COc1cccc2c1C(=O)c1c(O)c3c(c(O)c1C2=O)C[C@@](O)(C(=O)CO)C[C@@H]3O[C@H]1C[C@H](N)[C@H](O)[C@H](C)O1 [doxorubicin, reference compound]
relative potency ([1]; SNU423): potency similar to that of 10a

COc1cc(/C=C/c2ccc(OC)c(N)c2)cc(OC(C)C)c1.Cl
melting point: 134 to 136 °C

COc1cc(/C=C\c2ccc(OC)c(N)c2)cc(OC(C)C)c1.Cl
melting point: 120 to 122 °C

COc1cc(/C=C\c2ccc(OC)c(NC(=O)NCCN3CCOCC3)c2)cc(OC)c1 [5a, (Z)1-{5-[2-(3,5-Dimethoxy-phenyl)-vinyl]-2-methoxy-phenyl}-3-(2-morpholin-4-yl-ethyl)-urea, hydrochloride]
relative potency / activity [3]: showed no activity

COc1cc(/C=C\c2ccc3ccn(C)c3c2)cc(OC)c1 [13b, (Z)-6-[2-(3,5-Dimethoxy-phenyl)-vinyl]-1-methyl-1H-indole]
relative potency / activity [3]: less potent than stilbene 4a by one log

Nc1ccn([C@@H]2O[C@H](CO)[C@@H](O)[C@@H]2O)c(=O)n1 [Ara-C, reference compound]
adverse effect [5]: Ara-C-induced conjunctivitis

C=CCOc1cc(/C=C/c2ccc(OC)c(N)c2)cc(OC)c1.Cl
melting point: 137 to 140 °C

COc1cc2c(c(OC)c1OC)-c1ccc(OC)c(=O)cc1[C@@H](NC(C)=O)CC2 [colchicine, reference compound]
effective / active concentration ([2]; SKOV3, 48 hours): 0.1 µM

COc1ccc(/C=C\c2ccc3[nH]ccc3c2)cc1N.O=C(O)C(=O)O [14a, (Z)-5-[2-(1H-Indol-5-yl)-vinyl]-2-methoxy-phenylamine, oxalate salt]
relative potency / activity [3]: not active | melting point: 112 to 115 °C

COc1ccc(/C=C\c2ccc3c(ccn3C)c2)cc1N [14b, (Z)-2-Methoxy-5-[2-(1-methyl-1H-indol-5-yl)-vinyl]-phenylamine]
relative potency / activity [3]: less potent than stilbene 4a by one log

CCOc1cc(/C=C\c2ccc(OC)c(N)c2)cc(OC)c1.Cl [10b, (Z)-5-[2-(3-Ethoxy-5-methoxy-phenyl)-vinyl]-2-methoxy-phenylamine, hydrochloride]
relative potency / activity [3]: active but less effective than stilbene 4a | melting point: 127 to 131 °C

CCOc1cc(/C=C/c2ccc(OC)c(N)c2)cc(OC)c1.Cl
melting point: 147 to 149 °C

C=CCOc1cc(/C=C\c2ccc(OC)c(N)c2)cc(OC)c1.Cl [10e, (Z)-5-[2-(3-Allyloxy-5-methoxy-phenyl)-vinyl]-2-methoxy-phenylamine, hydrochloride]
relative potency / activity [3]: active but less effective than stilbene 4a | melting point: 122 to 125 °C

COc1cc(/C=C\c2ccc(OC)c(N)c2)cc(OCC(=O)O)c1 [10f, (Z)-{3-[2-(3-Amino-4-methoxy-phenyl)-vinyl]-5-methoxy-phenoxy}-acetic acid]
relative potency / activity [3]: not active
